From patent publication US9464064B2, “HCV helicase inhibitors and methods of use thereof” (University of Kansas, priority 2011, dated 2016) come the findings set out here.

Data set [1] in a line: Absorbance and fluorescence properties. Type of data set: physicochemical. To be noted: for Absorbance ∈: extinction coefficient. The text has this:
Most of the compounds isolated from the two yellow dyes were fluorescent, absorbing light around 340 nm, and emitting near 420 nm. Their extinction coefficient and peak absorption wavelengths increased as the length of the benzothiazole oligomer increased. Their relative fluorescence decreased with the length of the benzothiazole chain. None of the compounds absorbed light near either the absorption or emission wavelengths of the Cy5-labeled MBHA substrate, or the wavelengths where the fluorescence of ethidium bromide stained DNA, SYBER green I-stained DNA, NS3-catalyzed peptide cleavage, or ATP hydrolysis were measured.
When directly compared with P4, the semi-synthetic primuline derivatives have a sharper absorbance peak centered near 360 nm, and they emit 3-15 times more light when excited at their absorbance maximum. […] Some compounds, like 12, stained both the cytoplasm and nucleus, but they also stained glass coverslips.

The target of the next data set is T1, NS3h_1b(con1) (Hepatitis C virus genotype 1b, UniProt Q9WMX2).
T1 construct: truncated C-terminally His-tagged NS3 proteins lacking the N-terminal protease, called NS3h; His-tag (C); made in house
T1 sequence (Q9WMX2 1192-1657): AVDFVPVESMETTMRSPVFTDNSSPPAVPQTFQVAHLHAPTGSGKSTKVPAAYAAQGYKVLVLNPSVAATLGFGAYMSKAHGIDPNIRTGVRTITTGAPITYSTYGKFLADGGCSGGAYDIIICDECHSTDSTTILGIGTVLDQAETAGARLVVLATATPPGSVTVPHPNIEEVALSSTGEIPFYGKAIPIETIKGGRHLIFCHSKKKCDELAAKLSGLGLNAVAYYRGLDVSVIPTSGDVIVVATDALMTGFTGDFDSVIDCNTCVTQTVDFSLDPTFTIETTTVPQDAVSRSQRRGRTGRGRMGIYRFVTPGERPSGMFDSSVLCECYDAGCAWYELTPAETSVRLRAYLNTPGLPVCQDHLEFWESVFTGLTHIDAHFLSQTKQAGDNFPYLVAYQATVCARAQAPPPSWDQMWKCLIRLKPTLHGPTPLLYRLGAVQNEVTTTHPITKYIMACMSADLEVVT
Kind of data set: RNA-stimulated ATP hydrolysis, pH 7.5, HCV. It counts as biochemical, hepatitis C virus genotype 1b(con1). How it is done: To compare the effect of compounds on HCV NS3h_1b (con1) to NS3h_DV2, reactions were performed with 2 nM of either enzyme in 25 mM Tris pH 7.5, 1.25 mM MgCl2, 1.0 mM ATP, 10% DMSO, 5 μg/ml BSA, 0.01% (v/v) TWEEN 20, 0.05 mM DTT, and 10 μM poly(U) RNA at 37° C.
To further profile compound specificity, it was determined whether the compounds would inhibit homologous NS3h expressed by the Dengue virus (NS3h_DV2). […] The same assays were also repeated with HCV NS3h_1b(con1) for comparison. […] However, most of the primuline derivatives were relatively potent inhibitors of RNA-stimulated ATP hydrolysis catalyzed by the Dengue enzyme under the same conditions.

The next data set deals with T2, NS3h_1b (Hepatitis C virus genotype 1b, UniProt Q9WMX2).
T2 construct: truncated C-terminally His-tagged NS3 proteins lacking the N-terminal protease, called NS3h; His-tag (C); made in house
T2 sequence (Q9WMX2 1192-1657): as above
As to the kind of experiment: ATPase assay without RNA. It counts as biochemical, hepatitis C virus genotype 1b(con1). How it is done:
A modified “malachite green” assay (Lanzetta, et al. (1979) Anal. Biochem. 100:95-97) was used to measure ATP hydrolysis. Fifty μL reactions contained 25 mM MOPS pH 6.5, 5 mM MgCl2, 2 mM ATP, 5 μg/mL BSA, 0.01% (v/v) TWEEN 20, 0.05 mM DTT, and poly(U) RNA (Saint Louis, Mo.) as indicated. Reactions were initiated by adding NS3h_1b(con1). Reactions were incubated for 15 minutes at 37° C. then stopped by mixing 40 μL of the reaction into 200 μL of the malachite green reagent (3 volumes 0.045% (w/v) malachite green, 1 volume 4.2% ammonium molybdate in 4N HCl, 0.05 volume of 20% TWEEN 20). […] Absorbance at 630 nm was proportional to the concentration of phosphate produced; free phosphate produced was measured against a standard curve.
A simple explanation for the ability of some of the primuline derivatives to inhibit helicase and protease with similar potency would be that the compounds acted by simply aggregating or denaturing the enzyme. To test for irreversible inhibition, NS3h was incubated with 100 μM of each compound, diluted and then assayed for its ability to unwind DNA under standard conditions. […] In a second test for a simple aggregation mechanism, each compound was tested for its ability to inhibit NS3-catalyzed ATP hydrolysis. ATP hydrolysis fuels the unwinding reaction and NS3 hydrolyzes ATP both in the presence and absence of DNA or RNA; nucleic acid stimulates NS3 catalyzed ATP hydrolysis about 50-fold. […] To test this hypothesis, ATPase assays were performed in the presence of various concentrations of each primuline derivative, under conditions similar to those used to monitor effects on DNA and RNA unwinding. Far more of each compound was needed to inhibit NS3-catalyzed ATP hydrolysis than was needed to inhibit the helicase activity, or, in some cases, NS3 protease activity (Table 11).

The target in another data set is scNS4A-NS3 (Hepatitis C virus genotype 1b, UniProt Q9WMX2). Kind of data set: NS3 protease assay (ENZOLYTE 520), full-length. Set-up: other: average of two sets; There is also a His tag. It counts as biochemical, hepatitis C virus genotype 1b(con1). How it is done: (§1) All oligonucleotides were purchased from Integrated DNA Technologies (IDT, Coralville, Iowa). Primuline derivatives were synthesized and purified as described herein. Three different NS3 proteins were used in this study. Two were truncated C-terminally His-tagged NS3 proteins lacking the N-terminal protease, called NS3h, the third was a full-length NS3 with the portion of NS4A needed for protease activation fused to its N-terminus, called scNS4A-NS3 (Howe, et al. (1999) Protein Sci. 8:1332-41), and the fourth was a 23 kDa scNS4A-NS3 protease fragment lacking the helicase domains, called scNS4A-NS3p (Protein One, Rockville, Md.). NS3h was expressed from two different HCV strains. NS3h_1b(con1) was from the con1 strain of genotype 1b (GENBANK accession AB114136), and NS3h_2a(JFH1) was from the JFH1 strain of HCV genotype 2a (GENBANK accession AJ238799). […] His-tagged recombinant NS3h_1b(con1), NS3h_2a(JFH1), and scNS4A-NS3 (also from genotype 1b(con1)) were expressed, and purified as previously described (Frick, et al. (2010) supra; Lam, et al. (2003) J. Virol. 77:3950-3961). The scNS4A-NS3p (genotype 1b) was from Protein One. A plasmid expressing NS3h from dengue virus strain 2 (NS3h_DV2)(GENBANK accession 2BMF) is known in the art (Xu, et al. (2005) J. Virol. 79:10278-10288), and used to express and purify NS3h_DV2 (Belon, et al. (2010) supra)
Chain of scNS4A-NS3 (Q9WMX2 1027-1657): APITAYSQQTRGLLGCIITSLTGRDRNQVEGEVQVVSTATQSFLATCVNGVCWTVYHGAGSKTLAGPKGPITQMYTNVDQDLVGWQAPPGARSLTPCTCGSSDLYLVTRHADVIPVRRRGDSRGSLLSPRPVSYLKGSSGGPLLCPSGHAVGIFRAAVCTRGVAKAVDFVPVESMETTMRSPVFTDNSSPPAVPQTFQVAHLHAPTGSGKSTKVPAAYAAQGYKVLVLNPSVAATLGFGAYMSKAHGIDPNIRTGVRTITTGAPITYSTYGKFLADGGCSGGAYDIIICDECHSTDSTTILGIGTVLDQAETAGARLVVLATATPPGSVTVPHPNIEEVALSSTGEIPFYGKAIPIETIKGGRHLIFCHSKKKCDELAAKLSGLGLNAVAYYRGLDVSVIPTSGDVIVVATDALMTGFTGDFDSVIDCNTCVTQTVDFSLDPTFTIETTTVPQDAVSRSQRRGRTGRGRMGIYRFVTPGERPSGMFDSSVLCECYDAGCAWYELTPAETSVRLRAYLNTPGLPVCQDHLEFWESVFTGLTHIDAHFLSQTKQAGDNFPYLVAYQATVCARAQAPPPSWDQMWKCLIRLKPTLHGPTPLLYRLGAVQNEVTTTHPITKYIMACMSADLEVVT
(§2) All NS3 protease assays were carried out using the 5-Carboxyfluorescein-labeled substrate from the AnaSpec. ENZOLYTE 520 Protease Assay Kit (AnaSpec, San Jose, Calif.). Each assay contained 5 nM scNS4A-NS3 or 50 nM scNS4A-NS3p, […], 5% DMSO and 1× Anaspec HCV protease assay buffer. Assays were carried out in a total volume of 20 μl in black 384-well plates with fluorescence at 520 nm measured using a BMG FLUOstar Omega fluorescence spectrophotometer. Reactions were performed with eight concentrations of a two-fold dilution series of each compound (in duplicate) starting at 100 μM.

The target of a further data set is T3, scNS4A-NS3p (UniProt P26663).
T3 construct: fused on or other part: NS4A cofactor peptide, from the same polyprotein, fused to the NS3 protease fragment
T3 sequence (P26663 1027-1657): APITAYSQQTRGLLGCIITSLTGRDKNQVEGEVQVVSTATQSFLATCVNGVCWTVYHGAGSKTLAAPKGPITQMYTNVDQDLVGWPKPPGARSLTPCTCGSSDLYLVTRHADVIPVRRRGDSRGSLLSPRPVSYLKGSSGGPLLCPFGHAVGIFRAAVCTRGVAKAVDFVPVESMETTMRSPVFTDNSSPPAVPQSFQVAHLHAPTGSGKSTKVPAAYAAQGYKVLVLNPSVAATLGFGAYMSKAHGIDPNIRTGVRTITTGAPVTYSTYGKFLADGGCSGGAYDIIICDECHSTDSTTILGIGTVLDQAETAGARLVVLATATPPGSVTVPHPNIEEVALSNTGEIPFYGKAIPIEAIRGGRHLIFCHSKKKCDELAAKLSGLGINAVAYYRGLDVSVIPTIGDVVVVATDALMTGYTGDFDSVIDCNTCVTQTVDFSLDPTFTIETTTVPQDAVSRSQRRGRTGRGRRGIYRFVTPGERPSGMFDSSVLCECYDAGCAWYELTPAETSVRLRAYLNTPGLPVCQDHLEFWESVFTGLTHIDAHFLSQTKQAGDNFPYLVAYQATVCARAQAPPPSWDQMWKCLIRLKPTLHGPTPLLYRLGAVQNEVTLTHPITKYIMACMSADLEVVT
Kind of data set: NS3 protease assay (ENZOLYTE 520), protease fragment. It counts as biochemical, hepatitis C virus genotype 1b. The settings on record: read-out: Protease ScNS4a-NS3p IC50 (μM) ± SD; one set of assays. As for the experimental part:
as §1, §2

As usually defined, the IC50 is the concentration that inhibits the measured activity by half. Regarding `Cc1ccc2nc(-c3ccc4nc(-c5ccc(NC(=O)c6ccc(N)cc6)cc5)sc4c3)sc2c1S(=O)(=O)O` [Compound 6, 2′-(4-(4-aminobenzamido)phenyl)-6-methyl-[2,6′-bibenzo[d]thiazole]-7-sulfonic acid], in data set [1], the “Absorbance λmax” value was determined as 360 nm, the “Fluorescence Emmax” value is listed as 429 nm, the “Fluorescence RFU@ 10 μM” value was 4 RFU and the “Absorbance ∈” value was 36,600 M^−1cm^−1. At NS3h_1b(con1), this molecule showed an IC50 of 140 ± 3 µM. This molecule also yielded a half-maximal inhibitory concentration (IC50) against NS3h_1b of 194 ± 30 µM. This molecule came in with an IC50 against scNS4A-NS3 of 39 ± 17 µM.
Consider `Cc1ccc2nc(-c3ccc4nc(-c5ccc(NC(=O)c6ccc(F)cc6)cc5)sc4c3)sc2c1S(=O)(=O)O.N` [Compound 7, 2′-(4-(4-fluorobenzamido)phenyl)-6-methyl-[2, bibenzo[d]thiazole]-7-sulfonic acid], for which, in data set [1], the “Absorbance λmax” value is given as 356 nm, the “Fluorescence Emmax” value was 496 nm, the “Fluorescence RFU@ 10 μM” value is 111 RFU and the “Absorbance ∈” value is 24,950 M^−1cm^−1. On NS3h_1b(con1), this molecule displayed a 50% inhibitory concentration (IC50) of 73 ± 13 µM. This molecule also displayed an IC50 against NS3h_1b of 67 ± 30 µM. The 50% inhibitory concentration (IC50) on scNS4A-NS3p was over 100 µM. The half-inhibitory concentration (IC50) on scNS4A-NS3 stood at 89 ± 47 µM.
As for `Cc1ccc2nc(-c3ccc4nc(-c5ccc(NC(=O)c6ccc(C(F)(F)F)cc6)cc5)sc4c3)sc2c1S(=O)(=O)O` [Compound 12, 6-methyl-2′-(4-(4-(trifluoromethyl)benzamido)phenyl)-[2,6′-bibenzo[d]thiazole]-7-sulfonic acid], in data set [1], the “Absorbance λmax” value was determined as 356 nm, the “Fluorescence Emmax” value turned out to be 498 nm, the “Fluorescence RFU@ 10 μM” value turned out to be 158 RFU and the “Absorbance ∈” value is listed as 42,750 M^−1cm^−1. Half-maximal inhibition on NS3h_1b(con1) (IC50) was put at 16 ± 5 µM. In addition, half-maximal inhibition against NS3h_1b (IC50) was put at 24 ± 5 µM. Further, the IC50 on scNS4A-NS3p stood at 7 µM. At scNS4A-NS3, this molecule yielded a half-inhibitory concentration (IC50) of 5 ± 1 µM.
Regarding `Cc1ccc2nc(-c3ccc4nc(-c5ccc(NC(=O)c6ccc(C(C)(C)C)cc6)cc5)sc4c3)sc2c1S(=O)(=O)O` [Compound 13, 2′-(4-(4-(tert-butyl)benzamido)phenyl)-6-methyl-[2,6′-bibenzo[d]thiazole]-7-sulfonic acid], in data set [1], the “Absorbance λmax” value turned out to be 356 nm, the “Fluorescence Emmax” value worked out at 502 nm, the “Fluorescence RFU@ 10 μM” value is 164 RFU and the “Absorbance ∈” value is listed as 37,150 M^−1cm^−1. The same molecule showed an IC50 against NS3h_1b(con1) of 150 ± 40 µM. The molecule also registered an IC50 against NS3h_1b of 150 ± 21 µM. For the same molecule, the IC50 at scNS4A-NS3p came to 93 µM. The same molecule displayed an IC50 against scNS4A-NS3 of 56 ± 23 µM.
Consider `Cc1ccc2nc(-c3ccc4nc(-c5ccc(NC(=O)c6ccc(Br)cc6)cc5)sc4c3)sc2c1S(=O)(=O)O` [Compound 15, 2′-(4-(4-bromobenzamido)phenyl)-6-methyl-[2,6′-bibenzo[d]thiazole]-7-sulfonic acid], for which, in data set [1], the “Absorbance λmax” value came to 356 nm. Besides, the “Fluorescence Emmax” value in data set [1] was found to be 497 nm. In addition, the “Fluorescence RFU@ 10 μM” value in data set [1] was found to be 209 RFU. Further, the “Absorbance ∈” value in data set [1] is recorded as 51,600 M^−1cm^−1. For the same molecule, the IC50 on NS3h_1b(con1) worked out at 21 ± 1 µM; on NS3h_1b, 50 ± 4 µM; on scNS4A-NS3p it was 6.5 µM; against scNS4A-NS3 it was 6 ± 1 µM.
Consider `Cc1ccc2nc(-c3ccc4nc(-c5ccc(NC(=O)c6cccc(Cl)c6)cc5)sc4c3)sc2c1S(=O)(=O)O` [Compound 17, 2′-(4-(3-chlorobenzamido)phenyl)-6-methyl-[2,6′-bibenzo[d]thiazole]-7-sulfonic acid], for which, in data set [1], the “Absorbance λmax” value is 356 nm, the “Fluorescence Emmax” value is listed as 502 nm, the “Fluorescence RFU@ 10 μM” value is 215 RFU and the “Absorbance ∈” value was 59,500 M^−1cm^−1. Besides, the midpoint of inhibition against NS3h_1b(con1), the IC50, lay at 51 ± 3 µM. The midpoint of inhibition against NS3h_1b, the IC50, lay at 74 ± 7 µM. The 50% inhibitory concentration (IC50) on scNS4A-NS3p is 24 µM. The concentration for half-maximal inhibition (IC50) on scNS4A-NS3 was over 100 µM.
Consider `Cc1ccc2nc(-c3ccc4nc(-c5ccc(NC(=O)c6ccc(Cl)c(Cl)c6)cc5)sc4c3)sc2c1S(=O)(=O)O` [Compound 18, 2′-(4-(3,4-dichlorobenzamido)phenyl)-6-methyl-[2,6′-bibenzo[d]thiazole]-7-sulfonic acid], for which the “Absorbance λmax” value in data set [1] was 356 nm. In addition, the “Fluorescence Emmax” value in data set [1] was found to be 501 nm. For the same molecule, in data set [1], the “Fluorescence RFU@ 10 μM” value worked out at 203 RFU. Further, the “Absorbance ∈” value in data set [1] was 44,000 M^−1cm^−1. Further, the IC50 at NS3h_1b(con1) was 72 ± 13 µM; at NS3h_1b, 44 ± 12 µM; on scNS4A-NS3p, 6.4 µM; against scNS4A-NS3 it was 13 ± 4 µM.
Consider `Cc1ccc2nc(-c3ccc4nc(-c5ccc(NC(=O)c6cc(C(F)(F)F)cc(C(F)(F)F)c6)cc5)sc4c3)sc2c1S(=O)(=O)O` [Compound 24, 2′-(4-(3,5-bis(trifluoromethyl)benzamido)phenyl)-6-methyl-[2,6′-bibenzo[d]thiazole]-7-sulfonic acid], for which, in data set [1], the “Absorbance λmax” value was found to be 355 nm, the “Fluorescence Emmax” value came to 497 nm, the “Fluorescence RFU@ 10 μM” value worked out at 121 RFU and the “Absorbance ∈” value is 45,650 M^−1cm^−1. For the same molecule, at NS3h_1b(con1), the IC50 was over 200 µM. In addition, the 50% inhibitory concentration (IC50) on NS3h_1b was 141 ± 28 µM. The IC50 at scNS4A-NS3p amounted to 7.6 µM. In addition, the IC50 at scNS4A-NS3 came out at 23 ± 15 µM.
Take `Cc1ccc2nc(-c3ccc4nc(-c5ccc6nc(-c7ccc8nc(-c9ccc(N)cc9)sc8c7)sc6c5)sc4c3)sc2c1S(=O)(=O)O` [Compound P4, 2′″-(4-aminophenyl)-6-methyl-[2,6′:2″,6′″-quaterbenzo[d]thiazole]-7-sulfonic acid]: in data set [1], the “Absorbance λmax” value turned out to be 382 nm, the “Fluorescence Emmax” value amounted to 467 nm, the “Fluorescence RFU@ 10 μM” value came out at 3 RFU and the “Absorbance ∈” value is 32,000 M^−1cm^−1. Further, on NS3h_1b, the IC50 came to 43 ± 10 µM. Besides, the 50% inhibitory concentration (IC50) on scNS4A-NS3p came to 4.9 µM. Half-maximal inhibition against scNS4A-NS3 (IC50) required 2 ± 1 µM.
